Experimental data from article PMC12388523, “Flavonoids and Sesquiterpene Lactones from Lychnophora ericoides (Arnica-Do-Cerrado) and Their In Vitro Effects on Multiple Myeloma and Acute Myeloid Leukemia” (Metabolites, 2025).
pIC50: −log10 of the molar value.

Key:
[1] = tested on: KB cell line; parameters: method as in PMID 17089326; settings: cited from earlier work
[2] = tested on: HL-60, MOLM-13, AMO-1, and KMS-12 PE cancer cells; assay: Proliferation, range over the four tested cancer cell lines; type: cell-based; settings: HL-60, MOLM-13, AMO-1, KMS-12 PE; read-out: IC50 inhibition of proliferation, range over cell lines
Method: Acute myeloid leukemia cell line HL-60 and multiple myeloma cell lines AMO-1 and KMS-12-PE were obtained from the German Collection of Microorganisms and Cell Cultures (DSMZ), Braunschweig, Germany, and non-tumorigenic stromal cell line HS-5 was acquired from the American Type Culture Collection (ATCC, Manassas, VA, USA). All cell lines were cultured in RPMI 1640 medium without phenol red (Pan Biotech, Aidenbach, Germany), supplemented with 2 mM glutamine, 100 U/mL penicillin, 100 µg/mL streptomycin (Sigma-Aldrich, St. Louis, MO, USA), and 10% fetal bovine serum (FBS Maximus, Catus Biotech GmbH, Tutzing, Germany) at 37 °C in a humidified atmosphere of 5% CO2/95% air. […] Cell proliferation was assessed by [^3H]-thymidine uptake. […] Cells were harvested using a semi-automated device, and [^3H]-thymidine incorporation (expressed in counts per minute, cpm) was measured with a scintillation counter (MicroBeta TriLux, PerkinElmer, Waltham, MA, USA). Metabolic activity was assessed by resazurin staining. […] Relative fluorescence units (RFUs) were measured using a Synergy H1 plate reader equipped with a 560 nm excitation/590 nm emission filter set (BioTek; Agilent, Santa Clara, CA, USA). Proliferation and metabolic activity in the absence of compounds were defined as 100% (control), and the values for compound-treated samples were expressed as percentages relative to the control. […]

[3] = tested on: HS-5 cells; assay: Metabolic activity, resazurin staining, non-malignant HS-5; type: cell-based; settings: HS5, HS-5 (non-malignant), 72 h, 95% confidence interval in brackets, read-out: IC50 inhibition of metabolic activity
Method: Acute myeloid leukemia cell line HL-60 and multiple myeloma cell lines AMO-1 and KMS-12-PE were obtained from the German Collection of Microorganisms and Cell Cultures (DSMZ), Braunschweig, Germany, and non-tumorigenic stromal cell line HS-5 was acquired from the American Type Culture Collection (ATCC, Manassas, VA, USA). All cell lines were cultured in RPMI 1640 medium without phenol red (Pan Biotech, Aidenbach, Germany), supplemented with 2 mM glutamine, 100 U/mL penicillin, 100 µg/mL streptomycin (Sigma-Aldrich, St. Louis, MO, USA), and 10% fetal bovine serum (FBS Maximus, Catus Biotech GmbH, Tutzing, Germany) at 37 °C in a humidified atmosphere of 5% CO2/95% air. Cells were fed twice weekly. Logarithmically growing cells were resuspended at 1 × 10^5 cells/mL, plated in triplicate in round-bottom 96-well plates (100 µL per well; Falcon, Becton Dickinson, Franklin Lakes, NJ, USA), and incubated at 37 °C in 5% CO2/95% air for 2 h. […] Cell proliferation was assessed by [^3H]-thymidine uptake. […] Cells were harvested using a semi-automated device, and [^3H]-thymidine incorporation (expressed in counts per minute, cpm) was measured with a scintillation counter (MicroBeta TriLux, PerkinElmer, Waltham, MA, USA). Metabolic activity was assessed by resazurin staining. […] Relative fluorescence units (RFUs) were measured using a Synergy H1 plate reader equipped with a 560 nm excitation/590 nm emission filter set (BioTek; Agilent, Santa Clara, CA, USA). Proliferation and metabolic activity in the absence of compounds were defined as 100% (control), and the values for compound-treated samples were expressed as percentages relative to the control. Selectivity indices were calculated by dividing the IC50 value of each compound against HS-5 cells through the IC50 values against the investigated cell lines.
The Wilcoxon Rank Sum Test was used to analyze proliferation and metabolic activity in the absence and presence of varying compound concentrations (NCSS 2007 software, version 07.1.2, Kaysville, UT, USA). […] IC50 values were calculated using GraphPad Prism 10.1.2. […]

[4] = tested on: AMO-1 cells; assay: Proliferation, [3H]-thymidine uptake, AMO-1; type: cell-based
Method: Acute myeloid leukemia cell line HL-60 and multiple myeloma cell lines AMO-1 and KMS-12-PE were obtained from the German Collection of Microorganisms and Cell Cultures (DSMZ), Braunschweig, Germany, and non-tumorigenic stromal cell line HS-5 was acquired from the American Type Culture Collection (ATCC, Manassas, VA, USA). All cell lines were cultured in RPMI 1640 medium without phenol red (Pan Biotech, Aidenbach, Germany), supplemented with 2 mM glutamine, 100 U/mL penicillin, 100 µg/mL streptomycin (Sigma-Aldrich, St. Louis, MO, USA), and 10% fetal bovine serum (FBS Maximus, Catus Biotech GmbH, Tutzing, Germany) at 37 °C in a humidified atmosphere of 5% CO2/95% air. Cells were fed twice weekly. Logarithmically growing cells were resuspended at 1 × 10^5 cells/mL, plated in triplicate in round-bottom 96-well plates (100 µL per well; Falcon, Becton Dickinson, Franklin Lakes, NJ, USA), and incubated at 37 °C in 5% CO2/95% air for 2 h. Subsequently, the compounds were adjusted in the cell culture medium to reach the final concentrations in a total volume of 150 µL and incubated for an additional 72 h. Cell proliferation was assessed by [^3H]-thymidine uptake. Each well was exposed to 2 µCi [^3H]-thymidine (Hartmann Analytic, Braunschweig, Germany) during the final 12–16 h of incubation. Cells were harvested using a semi-automated device, and [^3H]-thymidine incorporation (expressed in counts per minute, cpm) was measured with a scintillation counter (MicroBeta TriLux, PerkinElmer, Waltham, MA, USA). Metabolic activity was assessed by resazurin staining. Resazurin (Carl Roth, Karlsruhe, Germany) was dissolved in distilled water at a concentration of 0.1 mg/mL, and 15 µL of this solution was added to each well, followed by a 2 h incubation at 37 °C. Relative fluorescence units (RFUs) were measured using a Synergy H1 plate reader equipped with a 560 nm excitation/590 nm emission filter set (BioTek; Agilent, Santa Clara, CA, USA). Proliferation and metabolic activity in the absence of compounds were defined as 100% (control), and the values for compound-treated samples were expressed as percentages relative to the control. Selectivity indices were calculated by dividing the IC50 value of each compound against HS-5 cells through the IC50 values against the investigated cell lines.
The Wilcoxon Rank Sum Test was used to analyze proliferation and metabolic activity in the absence and presence of varying compound concentrations (NCSS 2007 software, version 07.1.2, Kaysville, UT, USA). A p-value < 0.05 was considered statistically significant. IC50 values were calculated using GraphPad Prism 10.1.2. This software reports 95% confidence intervals instead of standard errors. […] Nonetheless, the figures clearly illustrate the IC50 values due to the narrow concentration range tested.

[5] = tested on: myelomonocytic chicken cell line HD11-C3; parameters: method as in PMID 23501116; settings: read-out: IC50 cytotoxic activity; cited from earlier work
[6] = tested on: c-Myb-dependent gene expression; parameters: method as in PMID 23501116; settings: read-out: IC50 inhibition of c-Myb-dependent gene expression; cited from earlier work
[7] = tested on: CEM; parameters: method as in PMID 15577239; settings: cited from earlier work

C=C(C)C(=O)O[C@H]1C[C@@]2(C)OC(=CC2=O)/C(CO)=C\[C@H]2OC(=O)C(=C)[C@H]12 [Compound 5, goyazensolide]
pIC50 [1]: > 6.52 | pIC50 [2]: 5.80 to 6.00 | pIC50 [3]: 5.59 | pIC50 ([4]; Homo sapiens, AMO1, 72 h, AMO-1, 72 h, 95% confidence interval in brackets, read-out: IC50 inhibition of proliferation): 5.80 | Selectivity index (proliferation) ([4]; IC50 HS-5 / IC50 AMO-1): 1.2 | pIC50 [5]: 5.00 | pIC50 [6]: 6.20 | pIC50 [7]: 6.77
